According to patent US20120094939A1, “ANTI-VIRAL COMPOUNDS, COMPOSITIONS AND METHODS” (priority 2007, published 2012):
Where two headings read alike, the source gives them in different places.

Key:
[1] = test system: OR6 cells harboring full-length genotype 1b HCV replicon ORN/C-5B/KE (HCV RNA replication); assay: microbe, parasite or virus in culture; assay type: cell-based, Hepatitis C virus (strain HCV—O; conditions: 48 hours; for antiviral activity (in words): OR6 full-length replicon
Text: (§1) HCV Replicon System-Secondary Assays. For validation, OR6 cells stably harboring the full-length genotype 1 replicon, ORN/C-5B/KE9 were used to examine compound activity in a more authentic viral polyprotein context. This replicon was derived from the 1B-2 strain (strain HCV—O, genotype 1b), in which the Renilla luciferase gene is introduced as a fusion protein with neomycin to facilitate the monitoring of HCV replication. This construct contains a tissue culture adaptive mutation in the NS3 region. Cells were cultured in an identical manner to the Huh7/Rep-Feo cells.
(§2) Secondary Assays-Hit Validation. Several hits from primary HTS, as well as functionally related compounds, were purchased from Sigma (St. Louis, Mo.), Calbiochem (San Diego, Calif.), and Microsource (Gaylordsville, Conn.). […] Ten mM of stock solutions of the individual compounds to be tested was prepared in the appropriate solvent (DMSO, ethanol, or H2O, according to the manufacturer's information) and stored at −20° C. Cells were seeded into 96-well plates at a density of 2000 cells/well in 100 μL of medium. The cells were incubated for 24 hours at 37° C. to obtain the optimal level of adherence. Solutions of candidate hit compounds were added to wells to achieve final concentrations of 0.1, 1, 10, 50, and 100 μM. The final concentration of DMSO or ethanol in every well was 1% or less by volume. Mock solutions were used as a negative control. PEG-IFN and ribavirin were used as positive controls at various concentrations, alone and in combination. The plates were then incubated at 37° C. with 5% CO2 for 48 hours before they were analyzed. Luminescent signal was generated using the Renilla luciferase assay kit (Promega) according to the manufacturer's instructions. Signal was then detected using a LumiCount (Packard BioScience Company) luminometer. Cell viability was assessed using CellTiter-Glo (Promega), following the manufacturer's instructions. All experiments were performed in triplicate.
(§3) Secondary Assays-Data Analysis. Values were presented as a percentage of mock treated control, which was arbitrarily set at 100%. Data were expressed as the mean (±) SD. […] Synergy calculations were performed using CalcuSyn (Biosoft; Cambridge, England).
as §1, with “System—Secondary Assays:” for “System-Secondary Assays.”, “For replicon” for “For”, “ORN/C-5B/KE” for “ORN/C-5B/KE9”, “(Burke J. Am. Chem. Soc. (2004) 126:14095-14104).” for “to examine compound activity in a more authentic viral polyprotein context.”, “the Neomycin resistance cassette” for “neomycin”
(§4) Secondary Assays—Hit Validation: 10 mM of stock solutions of the individual compounds to be tested were prepared in DMSO and stored at −20° C. Cells were seeded into 96-well plates at a density of 2,000 cells/well in 100 μl of medium. The cells were incubated for 24 hours at 37° C. to obtain the optimal level of adherence. Solutions of candidate hit compounds were added to wells to achieve varying final concentrations between 0.01 and 100 μM. The final concentration of DMSO or ethanol in every well was 1% or less by volume. Mock solutions were used as a negative control. Peginterferon-alfa-2b (PEG-Intron; Schering Corp.; Kenilworth, N.J.) and ribavirin (Sigma; St. Louis, Mo.) were used as positive controls at various concentrations, alone and in combination. The plates were then incubated at 37° C. with 5% CO2 for 48 hours before they were analyzed. Luminescent signal was generated using the Renilla luciferase assay kit (Promega; Madison, Wis.) according to the manufacturer's instructions. Signal was then detected using a LumiCount™ (Packard BioScience Company; Downers Grove, Ill.) luminometer.

OR6 cells = assay: Secondary assay cell viability (CellTiter-Glo); conditions: 48 hours
Procedure: as §2, §3
as §4, with “luminometer. Cell viability was assessed using CellTiter-Glo (Promega; Madison, Wis.), following the manufacturer's instructions. All experiments were performed in triplicate. Values were presented as a percentage of mock treated control, which was arbitrarily set at 100%. Data were expressed as the mean±SD.” for “luminometer.”
Secondary Assays—Data Analysis: Values were presented as a percentage of mock treated control, which was arbitrarily set at 100%. Data were expressed as the mean±SD.

[2] = Hepatitis C virus, OR6, 48 h, read-out: IC50 (HCV RNA replication, luciferase), OR6 full-length genotype 1b replicon

SMILES	IC50 [1, 2]	concentrations with no significant/observed cytotoxicity (OR6 cells)	antiviral activity (in words) [1]	cytotoxicity (in words) (OR6 cells)	concentrations at which cytotoxic effects were exhibited (OR6 cells)	IC50 ([1]; read-out: IC50 (HCV RNA replication, luciferase), OR6 full-length genotype 1b replicon)
O=C1C2(CO)C=C(Br)C(CC2c2ccccc2)[C@@]12CO2 (stereo partly shown) [SM_A6B5_2P100]	~7000 nM	≤ 30 µM	–	–	–	–
COc1cc2c(cc1OC)-c1c/c(=N\c3c(C)cc(C)cc3C)n(C)c(=O)n1CC2 [trequinsin, reference compound]	–	–	antiviral activity at the lower concentrations of 1 and 10 μM	significant cytotoxicity only at the higher concentrations of 50 and 100 μM	–	–
O=C1C2C=C(I)C(CC2OCCCCO)[C@@]12CO2 (stereo partly shown) [SM_A5B3_2P141]	10000 to 50000 nM	–	modest antiviral activity	–	–	–
Cc1cc(C)c(-c2cc([C@H](C)O/N=C3/[C@H]4CCn5c(=O)n(-c6ccccc6)c(=O)n5[C@H]4[C@H](O)[C@@H]4O[C@H]34)on2)c(C)c1 [BUCMLD-B10A11]	< 500 nM	≤ 10 µM	–	–	–	–
Cc1cc2c(nc1C)CCCN2CC(C)O/N=C1/[C@H]2CCn3c(=O)n(-c4ccccc4)c(=O)n3[C@H]2[C@H](O)[C@@H]2O[C@H]12 (stereo partly shown) [BUCMLD-B10A5]	~1000 nM	–	–	–	≥ 30 µM	–
CC(=O)OC[C@H]1O[C@H](CCO/N=C2/[C@H]3CCn4c(=O)n(-c5ccccc5)c(=O)n4[C@H]3[C@H](O)[C@@H]3O[C@H]23)C=C[C@@H]1OC(C)=O [BUCMLD-B10A3]	> 500 nM	–	–	–	above 7 μM	< 1000 nM
